PubChem BioAssay (NCI)
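Values below derive from 48-hour exposures of cells grown in 96-well plates, with endpoints linearly interpolated between the two concentrations bracketing the appropriate inhibition level. The concentration for full growth arrest is given as TGI.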

What was measured:
Assay in all cases: DTP human tumour cell line panel, 48 h
HT29 colon = test system: HT29 colon
SF-295 CNS = test system: SF-295 CNS
RXF 393 renal = test system: RXF 393 renal
SR leukemia = test system: SR leukemia
OVCAR-5 ovarian = test system: OVCAR-5 ovarian
OVCAR-4 ovarian = test system: OVCAR-4 ovarian
OVCAR-3 ovarian = test system: OVCAR-3 ovarian
HCT-15 colon = test system: HCT-15 colon
LXFL 529 NSCLC = test system: LXFL 529 NSCLC
T-47D breast = test system: T-47D breast
MDA-N = test system: MDA-N
CAKI-1 renal = test system: CAKI-1 renal
SK-OV-3 ovarian = test system: SK-OV-3 ovarian
SF-539 CNS = test system: SF-539 CNS
SF-268 CNS = test system: SF-268 CNS
UACC-62 melanoma = test system: UACC-62 melanoma
NCI-H226 lung = test system: NCI-H226 lung
OVCAR-8 ovarian = test system: OVCAR-8 ovarian
HCT-116 colon = test system: HCT-116 colon
U251 CNS = test system: U251 CNS
DU-145 prostate = test system: DU-145 prostate
MCF7 breast = test system: MCF7 breast
BT-549 breast = test system: BT-549 breast
DMS 114 small cell lung = test system: DMS 114 small cell lung
M14 melanoma = test system: M14 melanoma
SK-MEL-28 melanoma = test system: SK-MEL-28 melanoma
SNB-19 CNS = test system: SNB-19 CNS
LOX IMVI melanoma = test system: LOX IMVI melanoma
HCC-2998 colon = test system: HCC-2998 colon
XF 498 CNS = test system: XF 498 CNS
TK-10 renal = test system: TK-10 renal
HS 578T breast = test system: HS 578T breast
UACC-257 melanoma = test system: UACC-257 melanoma
SW-620 colon = test system: SW-620 colon
HL-60(TB) leukemia = test system: HL-60(TB) leukemia
MOLT-4 leukemia = test system: MOLT-4 leukemia
KM12 colon = test system: KM12 colon
EKVX NSCLC = test system: EKVX NSCLC
UO-31 renal = test system: UO-31 renal
KM20L2 colon = test system: KM20L2 colon
ACHN renal = test system: ACHN renal
HOP-92 NSCLC = test system: HOP-92 NSCLC
A549 NSCLC = test system: A549 NSCLC
MDA-MB-435 = test system: MDA-MB-435
IGROV1 ovarian = test system: IGROV1 ovarian
SN12C renal = test system: SN12C renal
DLD-1 colon = test system: DLD-1 colon
COLO 205 colon = test system: COLO 205 colon
HOP-62 NSCLC = test system: HOP-62 NSCLC
HOP-18 NSCLC = test system: HOP-18 NSCLC
MALME-3M melanoma = test system: MALME-3M melanoma
SK-MEL-5 melanoma = test system: SK-MEL-5 melanoma
NCI-H460 lung = test system: NCI-H460 lung
M19-MEL melanoma = test system: M19-MEL melanoma
SK-MEL-2 melanoma = test system: SK-MEL-2 melanoma
SNB-75 CNS = test system: SNB-75 CNS
786-0 renal = test system: 786-0 renal
NCI-H23 lung = test system: NCI-H23 lung
NCI/ADR-RES ovarian = test system: NCI/ADR-RES ovarian
RPMI-8226 leukemia = test system: RPMI-8226 leukemia
A498 renal = test system: A498 renal
DMS 273 small cell lung = test system: DMS 273 small cell lung
CCRF-CEM leukemia = test system: CCRF-CEM leukemia
NCI-H522 lung = test system: NCI-H522 lung
PC-3 prostate = test system: PC-3 prostate
K-562 leukemia = test system: K-562 leukemia
RXF-631 renal = test system: RXF-631 renal

Measured: TGI

CCOC(=O)NC(=O)c1cn(CCCOC(=O)CCCCCCCCC(=O)OCCCn2cc(C(=O)NC(=O)OCC)c(=O)n(C)c2=O)c(=O)n(C)c1=O
> 93.8 µM: XF 498 CNS
> 77.8 µM: SNB-75 CNS
> 96.6 µM: HOP-62 NSCLC
> 100 µM: HT29 colon | SF-295 CNS | RXF 393 renal | SR leukemia | OVCAR-5 ovarian | OVCAR-4 ovarian | OVCAR-3 ovarian | HCT-15 colon | LXFL 529 NSCLC | T-47D breast | MDA-N | CAKI-1 renal | SK-OV-3 ovarian | SF-539 CNS | SF-268 CNS | UACC-62 melanoma | NCI-H226 lung | OVCAR-8 ovarian | HCT-116 colon | U251 CNS | DU-145 prostate | MCF7 breast | BT-549 breast | DMS 114 small cell lung | M14 melanoma | SK-MEL-28 melanoma | SNB-19 CNS | LOX IMVI melanoma | HCC-2998 colon | TK-10 renal | HS 578T breast | UACC-257 melanoma | SW-620 colon | HL-60(TB) leukemia | MOLT-4 leukemia | KM12 colon | EKVX NSCLC | UO-31 renal | KM20L2 colon | ACHN renal | HOP-92 NSCLC | A549 NSCLC | MDA-MB-435 | IGROV1 ovarian | SN12C renal | DLD-1 colon | COLO 205 colon | HOP-18 NSCLC | MALME-3M melanoma | SK-MEL-5 melanoma | NCI-H460 lung | M19-MEL melanoma | SK-MEL-2 melanoma | 786-0 renal | NCI-H23 lung | NCI/ADR-RES ovarian | RPMI-8226 leukemia | A498 renal | DMS 273 small cell lung | NCI-H522 lung | PC-3 prostate | K-562 leukemia | RXF-631 renal
> 46.4 µM: CCRF-CEM leukemia
